Source: patent US11241424B2, “Pharmaceutical formulations for sustained release of sebacoyl dinalbuphine ester” (LUMOSA THERAPEUTICS CO., LTD., priority 2015, dated 2022)
Values joined by “and” are separate entries in the source; they are usually repeats but may differ in a detail not shown here. Equal entries are not always repeated.

Legend:
[1] = system: postoperative pain following hemorrhoidectomy; test: Phase 2/3 clinical study of F8 formulation; format: in vivo, human
Method: The subjects were divided into two groups, of which Group 1 (n=103) was treated with a single dose of intramuscular SDE 150 mg (2 mL), and Group 2 (n=106) was treated with a single dose of intramuscular placebo (2 mL). All subjects were given a single dose of SDE or placebo via intramuscular injection 24±12 hours before hemorrhoid surgery. The subjects were allowed to take rescue medication and monitored for 7 days after dosing. Statistical analyses were performed on the data to compare the two groups.
The primary efficacy endpoint was pain assessment calculated as the area under the curve of VAS pain intensity scores through 48 hours after surgery. The secondary efficacy endpoints included pain assessment measured with VAS; time from the end of operation to the first rescue medication dosing; the consumption of oral ketorolac. Pain intensity was assessed right before the first use of PCA ketorolac, and at 1±0.1, 2±0.1, 3±0.1, 4±0.25, 8±0.5, 12±0.5, 16±0.5, 20±0.5, 24±1, 28±1, 32±2, 36±2, 40±2, 44±2, 48±2 hours after the surgery, and was assessed during Days 3-7 in the morning and evening, as well as during special events such as bowel movements.
For the calculation of AUC, data were imputed with the use of the windowed worst observation carried forward plus last observation carried forward method. For subjects who used rescue medication for pain relief, their VAS scores recorded within the window of ketorolac medication (6 hours, which is one half-life of ketorolac) were replaced by the “worst” observation (i.e., the highest score before taking ketorolac), hereafter called “adjusted VAS scores.”
The AUC0-24 and AUC0-48 of the mean adjusted VAS scores of SDE and placebo groups were calculated by using the trapezoidal method and summarized in Table 10.

[2] = Solubility test of SDE in solvents and solvent systems (UPLC); format: physicochemical
Method: As used herein, the term “solubility” means the maximum amount of a solute (e.g., an active ingredient or a prodrug thereof) that can be dissolved in a given amount of a solvent at a particular temperature. Unless otherwise specified, the solubilities presented herein are at room temperature (e.g., 25-28° C.). The term “saturated concentration” refers to the concentration at which no more of a solute will dissolve in a solvent and additional amounts of solute will appear as a separate phase (e.g., as a precipitate).
Each of the solvent systems was prepared by mixing each component with the exact volume (pi) corresponding to the w/w % listed in Table 15. About 500 μl of each of the solvent systems was prepared and was vortexed for 3 minutes or more to fully mix each component. An appropriate amount of SDE was added into 250 μl of each of the solvent systems and the resulting mixtures were sonicated for 10 minutes. If the previously added SDE was completely dissolved, an additional 4-8 mg of SDE was added into the mixture and which was then sonicated for another 10 minutes. The step of adding 4-8 mg of SDE was repeated until the mixture was saturated to show undissolved SDE precipitates. All of the mixtures were sonicated for at least 30 minutes, and then centrifuged to collect the supernatants. The supernatants were treated with acetonitrile and then subjected to UPLC analysis.
Five groups of solvent systems containing 40% by weight of sesame oil were respectively prepared according to the method of Example 6 by using the compositions as listed in Table 17; and among them, five different alcohols (i.e., ethanol, 1-propanol, 2-propanol, 1-butanol, and tert-butanol) were used in the five groups. SDE was dissolved in each of the solvent systems till saturation by following the method of Example 6. The SDE concentrations in the supernatants collected from each of the samples (i.e. the saturated SDE concentration, or SDE solubility) were respectively determined by UPLC using the method of Example 6.

[3] = Bioavailability study of F8 formulation and Bain (whole blood nalbuphine); format: in vivo, human; conditions: mean, SDE 150 mg single IM as F8 formulation
Method: A total of twelve subjects completed the crossover study. […] There was a minimum 5-day washout period between period I and period II. In period I, the blood samples were drawn prior to the dosing, and 0.083, 0.25, 0.5, 1, 1.5, 2, 3, 4, 6, 8, 12, and 24 hours after dosing.

[4] = Phase I clinical trial of F8 formulation (safety, tolerability, pharmacokinetics); conditions: for AUC0-inf / AUC0-t / Cmax / T1/2 / Tmax: plasma nalbuphine, mean
Method: It was designed to evaluate safety and local tolerability and assess the pharmacokinetics of SDE following single dose intramuscular injection. The study enrolled a total of 28 healthy male subjects. All subjects were randomized to 5 cohorts. Cohort 1 (N=4) was treated with single dose Nubain® 17 mg (0.85 mL) via intramuscular injection. Cohorts 2-5 (N=6) were either treated with placebo (N=2) or treated with single dose SDE (N=4) at 75 mg (1 mL), 100 mg (1.33 mL), 125 mg (1.67 mL), and 150 mg (2 mL), respectively.
Heparinized blood samples were obtained before and at various time points following single dose administration of study medication. […] The subsequent analysis of the data involved non-compartmental pharmacokinetics analysis, i.e., Cmax, Tmax, AUC0-t, AUC0-inf, and T1/2.

[5] = after i.v. dosing in dogs; cited from earlier work
[6] = Plasma nalbuphine after subcutaneous nalbuphine in dogs; format: in vivo
[7] = 48 hours post-operation, SDE 150 mg IM (F8)
[8] = mITT, SDE 150 mg IM (F8) 24±12 hours before hemorrhoid surgery
[9] = SDE 75 mg single IM as F8 formulation
[10] = SDE 100 mg single IM as F8 formulation
[11] = SDE 125 mg single IM as F8 formulation
[12] = SDE 150 mg single IM as F8 formulation
[13] = dog, plasma, subcutaneous, 0.5 mg/kg

In the case of `O=C(CCCCCCCCC(=O)Oc1ccc2c3c1O[C@H]1[C@@H](O)CC[C@@]4(O)[C@@H](C2)N(CC2CCC2)CC[C@]314)Oc1ccc2c3c1O[C@H]1[C@@H](O)CC[C@@]4(O)[C@@H](C2)N(CC2CCC2)CC[C@]314` [SDE, sebacoyl dinalbuphine ester], the “AUC0-final of adjusted VAS scores, Mean ± SD” value ([1]; 0 hr to 7 days after hemorrhoid operation, mITT, SDE 150 mg IM (F8)) is reported as 630.79±350.90, the “consumption of oral ketorolac, Mean” value [1, 7] is reported as 51.36 mg and the “consumption of oral ketorolac, Median” value [1, 7] is reported as 40.00 mg. For the same compound, the “time for the first use of post-operational analgesic, Mean (SD)” value ([1]; mITT, SDE 150 mg IM (F8)) was 12.57 hour and 12.57 (1.68) hour, the “AUC0-24 of adjusted VAS pain intensity scores, Mean ± SD” value [1, 8] was 109.42 ± 55.04 and the “AUC0-48 of adjusted VAS pain intensity scores, Mean ± SD” value [1, 8] was 209.93±111.26. For the same compound, the “adjusted VAS score compared with placebo” value ([1]; throughout the 7 days after the hemorrhoid operation) was “lower than the placebo group”, the “effect of C2-C4 alcohol on the solubility of SDE (FIG. 11)” value ([2]; 2.5-30% by weight of the alcohol in solvent system with 40% sesame oil) was “significantly increased” and the “solubility of SDE in the formulations” value ([2]; 10% by weight of tert-Butanol replacing benzyl benzoate) was “about 210 mg/mL”. For the same compound, the “increase of the solubility of SDE in the solvent systems” value ([2]; 10% of alkyl alcohol added) was “at least 30%”, the “Solubility of SDE in the solvent” value ([2]; castor oil) was “about 13 mg/mL” and the “Solubility of SDE in the solvent” value ([2]; cottonseed oil) was “about 6 mg/mL”. The “solubility of SDE in ethanol, 1-propanol, or t-butanol” value ([2]; each alcohol alone) was 10000 to 30000 µg/mL, the “solubility of SDE when added to the mixture of benzyl benzoate and sesame oil” value (from here on “solubility of SDE when added”) ([2]; weight ratio of benzyl benzoate to sesame oil about 1.1) was “about 70 mg/mL” and the “solubility of SDE when added” value ([2]; weight ratio of benzyl benzoate to sesame oil about 1.5) was “about 150 mg/mL”. The “solubility of SDE when added” value ([2]; weight ratio of benzyl benzoate to sesame oil about 2.3) was “about 200 mg/mL”, the “solubility of SDE when added” value ([2]; weight ratio of benzyl benzoate to sesame oil about 9) was “greater than 300 mg/mL” and the “solubility of SDE in the formulations” value ([2]; without alkyl alcohol) was “about 160 mg/mL”. The AUC0-inf [3] was 1832.0 ng·h/mL, the AUC0-t [3] was 1687.4 ng·h/mL and the Cmax [3] was 15.40 ng/mL. It also gave an MRT [3] of 149.38 h, a T1/2 [3] of 83.16 h and a Tmax [3] of 64.00 h. For the same compound, the duration of action ([4]; cohort receiving 125 mg SDE, from plasma nalbuphine above 3 ng/mL) was “about 6.5 days”, the duration of action ([4]; cohort receiving 150 mg SDE, from plasma nalbuphine above 3 or 1 ng/mL) was 6 to 12 days and the tolerability ([4]; escalating single IM doses of SDE up to 150 mg) was “well tolerated”. For the same compound, the AUC0-inf [4, 9] was 692.27 ng·h/mL, the AUC0-t [4, 9] was 647.84 ng·h/mL and the Cmax [4, 9] was 5.45 ng/mL. For the same compound, the T1/2 [4, 9] was 55.75 h, the Tmax [4, 9] was 66 h and the AUC0-inf [4, 10] was 936.17 ng·h/mL. For the same compound, the AUC0-t [4, 10] was 811.34 ng·h/mL, the Cmax [4, 10] was 5.65 ng/mL and the T1/2 [4, 10] was 85.45 h. It also gave a Tmax [4, 10] of 66 h, an AUC0-inf [4, 11] of 1219.71 ng·h/mL and an AUC0-t [4, 11] of 1047.45 ng·h/mL. It also gave a Cmax [4, 11] of 7.31 ng/mL, a T1/2 [4, 11] of 89.83 h and a Tmax [4, 11] of 45 h. It also gave an AUC0-inf [4, 12] of 1353.16 ng·h/mL, an AUC0-t [4, 12] of 1214.98 ng·h/mL and a Cmax [4, 12] of 9.81 ng/mL. The T1/2 [4, 12] was 73.4 h, the Tmax [4, 12] was 60 h and the “difference between SDE and placebo groups in number of AEs, subjects with AEs, severity and relatedness” value ([4]; single IM dose 75-150 mg) was “No significant difference”. The “severity of adverse events (AEs)” value ([4]; single IM dose, healthy male subjects) was “mild”.
In the case of `Oc1ccc2c3c1O[C@H]1[C@@H](O)CC[C@@]4(O)[C@@H](C2)N(CC2CCC2)CC[C@]314` [nalbuphine], the “elimination half-life of nalbuphine” value [5] is listed as “about 1.2 hour”, the concentration at 3 h [6, 13] is listed as 9.9 ng/mL and the concentration at 4 h [6, 13] is listed as 5.2 ng/mL. The “effective plasma concentration of nalbuphine for analgesia in dog” value ([6]; inferred from 4 h plasma level and reported 4 h analgesia) was “about 5 ng/mL”.
